Measured values from PMC12668310, “High‐Throughput Synthesis and Screening of a Cyanimide Library Identifies Selective Inhibitors of ISG15‐Specific Protease mUSP18” (Angewandte Chemie (International Ed. in English), 2025).
Like-named read-outs stand apart in the source and are kept apart here.

Target: T1, mUSP18 (Mus musculus, UniProt Q9WTV6)
T1 construct: (46-368); His-tag (N); made in house
T1 sequence (Q9WTV6 46-368): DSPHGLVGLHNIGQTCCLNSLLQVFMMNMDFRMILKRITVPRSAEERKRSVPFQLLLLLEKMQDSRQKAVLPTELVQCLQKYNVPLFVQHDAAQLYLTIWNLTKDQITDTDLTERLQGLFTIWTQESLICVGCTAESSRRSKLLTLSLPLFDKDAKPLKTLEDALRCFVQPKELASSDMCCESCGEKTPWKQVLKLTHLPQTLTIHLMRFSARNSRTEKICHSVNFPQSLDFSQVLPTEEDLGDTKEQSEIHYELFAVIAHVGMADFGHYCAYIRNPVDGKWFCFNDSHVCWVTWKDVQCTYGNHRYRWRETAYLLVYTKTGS
Test: High-throughput screening, ISG15ct-RhoMP, single dose 1.25 µM
Assay type: biochemical, murine
Conditions: mUSP18 %inhibition

[1] = carboxylic acid (CA) building block alone, read-out: %inh CA only
[2] = carboxylic acid (CA) with coupling reagents DIC/HOBT, read-out: %inh CA + DIC/HOBT

SMILES | inhibition at 1.25 µM [1] | inhibition at 1.25 µM [2]
O=C(O)c1cc(S(=O)(=O)Nc2nccs2)ccc1F [CA403] | 0.9% | -6.97%
O=C(O)C1CCCN1C(=O)C1CC1 (centres unmarked) [CA404] | -4.12% | -12.2%
O=C(O)C(OC1CCOCC1)c1ccccc1 (centres unmarked) [CA405] | -0.68% | -7.73%
O=C(O)CCn1ccc(C(=O)N2CCCC2)n1 [CA406] | -2.83% | -11.1%
O=C(O)c1c[nH]nc1-c1ccncc1 [CA408] | -2.77% | -3.75%
COc1ccccc1N1CC(C(=O)O)CCC1=O (centres unmarked) [CA409] | -0.2% | -6.22%
Cn1nccc1[1C@@H]1C[1C@H]1C(=O)O [CA410] | -4.36% | -9.17%
O=C(O)C1CCCN(c2ncccn2)C1 (centres unmarked) [CA411] | -4.05% | -6.74%
O=C(O)c1ccc(-c2ccncc2)[nH]c1=O [CA412] | -8.86% | -7.67%
Cc1onc(C(=O)O)c1CN1CCN(C)CC1 [CA413] | -6.3% | -3.44%
O=C(O)CCn1nc(C(F)(F)F)cc1C1CC1 [CA415] | -5.69% | -4.3%
O=C(O)c1cc(COc2ccc(F)cc2F)on1 [CA417] | -8.45% | -7.97%
CC(=O)N1CCN(S(=O)(=O)c2cccc(C(=O)O)c2)CC1 [CA418] | -5% | -2.55%
Cn1cc(-c2cc(C(=O)O)n[nH]2)cn1 [CA419] | -7.23% | -1.62%
Cc1cc(C)n(-c2ccc(Cl)c(C(=O)O)n2)n1 [CA420] | -5.16% | -0.88%
O=C(O)c1cccc(S(=O)(=O)N2CCOCC2)c1 [CA422] | -10.9% | -0.86%
Cc1ccc(C=CS(=O)(=O)N2CCC(C(=O)O)CC2)cc1 [CA426] | -0.61% | -6.87%
O=C(O)c1cccnc1Oc1ccc(Cl)cc1Cl [CA427] | -5.52% | -6.68%
O=C(O)c1cccnc1-n1cccn1 [CA430] | -3.79% | 17%
CCn1nc(C(C)C)cc1C(=O)N1CCCCC1C(=O)O (centres unmarked) [CA431] | -2.4% | -10.1%
Cn1nc(C2CCC2)cc1C(=O)O [CA432] | -1.28% | -6.37%
CNS(=O)(=O)c1ccc(-c2ccccc2OC(F)(F)F)c(C(=O)O)c1 [CA434] | -0.67% | -3.53%
O=C(O)c1cc(S(=O)(=O)Nc2cccc(F)c2)ccc1F [CA436] | -3.43% | -0.67%

The remaining lines, values ahead:

inhibition at 1.25 µM [1] | inhibition at 1.25 µM [2] | SMILES
-5.56% | 33.9% | O=C(O)c1ccccc1OCc1cccs1 [CA407]
-4.22% | -9% | O=C(O)c1cccn1Cc1ccccn1 [CA414]
-3.85% | -4.32% | Cc1csc(-c2cccc(C(=O)O)c2)n1 [CA416]
-4.79% | -0.58% | O=C(O)Cc1csc(NS(=O)(=O)c2ccccc2)n1 [CA421]
8.99% | -4.85% | O=C(O)Cc1coc(-c2cccs2)n1 [CA423]
3.84% | -12.6% | COc1ccc(S(=O)(=O)N(CCC(=O)O)Cc2ccccc2)cc1 [CA424]
2.13% | -7.19% | Cc1oc(-c2ccsc2)nc1CC(=O)O [CA425]
-0.27% | -5.62% | O=C(O)Cc1csc(-c2ccccc2)n1 [CA428]
-5.24% | 4.15% | Cc1ccccc1-n1cc(C(=O)O)cn1 [CA429]
-0.99% | -7.69% | O=C(O)c1cccc(Oc2nccs2)c1 [CA433]
-5.3% | -2.79% | O=C(O)Cc1ccc(OCc2ccccn2)cc1 [CA435]
